From patent publication US9120785B2, “Pyridyl aminopyridines as Syk inhibitors” (Merck Sharp & Dohme Corp., priority 2011, dated 2015)
Read-outs that look alike come from different tables or passages of the source.

Tests used:
[1] = dosed intranasally, phase I/II study, allergic rhinitis; cited from earlier work
[2] = phase II clinical trial, allergic rhinitis; cited from earlier work
[3] = biological target: recombinant human GST-Syk (Homo sapiens (Human), UniProt P43405); assay: Homogeneous Time-Resolved Fluorescence (HTRF) assay for the recombinant human Syk enzyme; format: biochemical; details: recombinant human GST-Syk 5 pM, ATP 25 μM
How it was run: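 GST-hSyk (5 pM final) preincubated 10 min at room temperature with inhibitor (0.1% DMSO) in 15 mM Tris-HCl pH 7.5, 0.01% Tween 20, 2 mM DTT. Reaction with 250 nM biotinylated peptide, 5 mM Mg, 25 μM ATP for 45 min, room temperature. Quenched with EDTA; Eu-anti-phosphotyrosine/SA-APC HTRF read after 30 min.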

[4] = class symbols, read-out: rhSyk activity (IC50)

| Structure (SMILES) | IC50 [3, 4] | further results |
| --- | --- | --- |
| Oc1cccc(Nc2ncc(F)c(Nc3cccc(O)c3)n2)c1 [Example R112] |  | clinical safety [1]: safe across a range of indicators; decrease in PGD2 [1]: statistically significant decrease; efficacy versus placebo [2]: lack of efficacy versus placebo |
| CCCCOC(=O)[C@H]1CC[C@H](C(C)(O)c2ncc(-c3cc(C)cc(Nc4cc(C(F)(F)F)ccn4)n3)s2)CC1 (single isomer, unassigned) [Example 14, Step 1, butyl trans-4-{(1R or 1S)-1-hydroxy-1-[5-(4-methyl-6-{[4-(trifluoromethyl)pyridin-2-yl]amino}pyridin-2-yl)-1,3-thiazol-2-yl]ethyl}cyclohexanecarboxylate] | 100 to 1000 nM |  |
| Cc1cc(Nc2cc(OC(C)C)ccn2)nc(-c2cnc(C(O)([C@H]3CC[C@H](C(=O)O)CC3)C(F)(F)F)s2)c1 (single isomer, unassigned) [Example 14-26, trans-4-{2,2,2-trifluoro-1-hydroxy-1-[5-(4-methyl-6-{[4-(propan-2-yloxy)pyridin-2-yl]amino}pyridin-2-yl)-1,3-thiazol-2-yl]ethyl}cyclohexanecarboxylic acid] | ≤ 100 nM |  |
| CC(O)(c1ncc(-c2cc(C3CC3)cc(Nc3cc(C(F)(F)F)ccn3)n2)s1)[C@H]1CC[C@H](C(=O)O)CC1 (single isomer, unassigned) [Example 14-54] | ≤ 100 nM |  |
| COc1ccnc(Nc2cc(C)cc(-c3cnc(C(C)(O)[C@H]4CC[C@H](C(=O)O)C(C)(C)C4)s3)n2)c1 (stereo partly drawn) [Example 14-35, (1S,4S)-4-[1-hydroxy-1-(5-{6-[(4-methoxypyridin-2-yl)amino]-4-methylpyridin-2-yl}-1,3-thiazol-2-yl)ethyl]-2,2-dimethylcyclohexanecarboxylic acid] | ≤ 100 nM |  |
| Cc1ccnc(Nc2cccc(-c3cnc(C(C)(O)[C@H]4CC[C@H](C(=O)O)CC4)s3)n2)c1 (single isomer, unassigned) [Example 14-40, trans-4-[1-hydroxy-1-(5-{6-[(4-methylpyridin-2-yl)amino]pyridin-2-yl}-1,3-thiazol-2-yl)ethyl]cyclohexanecarboxylic acid] | ≤ 100 nM |  |
| Cc1cc(Nc2cc(C(F)(F)F)ccn2)nc(-c2cnc(C(O)([C@H]3CC[C@H](C(=O)O)CC3)C(F)(F)F)s2)c1 (single isomer, unassigned) [Example 14-19, trans-4-{2,2,2-trifluoro-1-hydroxy-1-[5-(4-methyl-6-{[4-(trifluoromethyl)pyridin-2-yl]amino}pyridin-2-yl)-1,3-thiazol-2-yl]ethyl}cyclohexanecarboxylic acid] | ≤ 100 nM |  |
| Cc1cc(Nc2cc(C(F)(F)F)ccn2)nc(-c2cnc([C@@](C)(O)[C@H]3CNC(=O)C3)s2)c1 [Example 14-55, (4R)-4-{(1S)-1-hydroxy-1-[5-(4-methyl-6-{[4-(trifluoromethyl)pyridin-2-yl]amino}pyridin-2-yl)-1,3-thiazol-2-yl]ethyl}pyrrolidin-2-one] | ≤ 100 nM |  |
| CC(O)(c1ncc(-c2cc(Cl)cc(Nc3cc(C(F)(F)F)ccn3)n2)s1)[C@H]1CC[C@H](C(=O)O)CC1 (single isomer, unassigned) [Example 14-52, trans-4-{1-[5-(4-chloro-6-{[4-(trifluoromethyl)pyridin-2-yl]amino}pyridin-2-yl)-1,3-thiazol-2-yl]-1-hydroxyethyl}cyclohexanecarboxylic acid] | ≤ 100 nM |  |
| CCCCOC(=O)[C@H]1CC[C@H](C(C)(O)c2ncc(-c3cc(C)cc(Nc4cc(C5CC5)ccn4)n3)s2)CC1 (relative stereo) [Example 14-6, butyl trans-4-[1-(5-{6-[(4-cyclopropylpyridin-2-yl)amino]-4-methylpyridin-2-yl}-1,3-thiazol-2-yl)-1-hydroxyethyl]cyclohexanecarboxylate] | 100 to 1000 nM |  |

The next lines start with results.

| IC50 [3, 4] | Structure (SMILES) | further results |
| --- | --- | --- |
| ≤ 100 nM | Cc1cc(Nc2cc(C(F)(F)F)ccn2)nc(-c2cnc(C(C)(O)C3CCC(C(=O)O)C(C)C3)s2)c1 (single isomer, unassigned) [Example 15-13, 4-{1-hydroxy-1-[5-(4-methyl-6-{[4-(trifluoromethyl)pyridin-2-yl]amino}pyridin-2-yl)-1,3-thiazol-2-yl]ethyl}-2-methylcyclohexanecarboxylic acid] |  |
| ≤ 100 nM | Cc1cc(Nc2cc(C(F)(F)F)ccn2)nc(-c2cnc(C(C)(O)C3CCC(C(=O)O)C(C)C3)s2)c1 (stereo not shown) [Example 15-17, 4-{1-hydroxy-1-[5-(4-methyl-6-{[4-(trifluoromethyl)pyridin-2-yl]amino}pyridin-2-yl)-1,3-thiazol-2-yl]ethyl}-2-methylcyclohexanecarboxylic acid] |  |
| ≤ 100 nM | CC(O)(c1ncc(-c2cccc(Nc3cc(C(F)(F)F)ccn3)n2)s1)[C@H]1CC[C@H](C(=O)O)CC1 (single isomer, unassigned) [Example 8, trans-4-{(1R or 1S)-1-Hydroxy-1-[5-(6-{[4-(trifluoromethyl)pyridin-2-yl]amino}pyridin-2-yl)-1,3-thiazol-2-yl]ethyl}cyclohexanecarboxylic acid] |  |
| ≤ 100 nM | Cc1cc(Nc2cc(C(F)(F)F)ccn2)nc(-c2cnc([C@](C)(O)[C@H]3CNC(=O)C3)s2)c1 [Example 14-56, (4R)-4-{(1R)-1-hydroxy-1-[5-(4-methyl-6-{[4-(trifluoromethyl)pyridin-2-yl]amino}pyridin-2-yl)-1,3-thiazol-2-yl]ethyl}pyrrolidin-2-one] |  |
| ≤ 100 nM | Cc1cc(Nc2cc(OC(C)C)ccn2)nc(-c2cnc(C(O)(C3CC3)[C@H]3CC[C@H](C(=O)O)CC3)s2)c1 (single isomer, unassigned) [Example 14-23, trans-4-{cyclopropyl(hydroxy)[5-(4-methyl-6-{[4-(propan-2-yloxy)pyridin-2-yl]amino}pyridin-2-yl)-1,3-thiazol-2-yl]methyl}cyclohexanecarboxylic acid] |  |
| ≤ 100 nM | COC(=O)[C@H]1CC[C@H](C(O)c2ncc(-c3cc(C)cc(Nc4cc(C(F)(F)F)ccn4)n3)s2)CC1 (relative stereo) [Example 14-27, methyl trans-4-{hydroxy[5-(4-methyl-6-{[4-(trifluoromethyl)pyridin-2-yl]amino}pyridin-2-yl)-1,3-thiazol-2-yl]methyl}cyclohexanecarboxylate] |  |
| ≤ 100 nM | CCC(O)(c1ncc(-c2cc(C)cc(Nc3cc(C4CC4)ccn3)n2)s1)[C@H]1CC[C@H](C(N)=O)CC1 (mixture of isomers) [Example 2, racemic mixture, trans-4-[1-(5-{6-[(4-cyclopropylpyridin-2-yl)amino]-4-methylpyridin-2-yl}-1,3-thiazol-2-yl)-1-hydroxypropyl]cyclohexanecarboxamide] | IC50 ([3]; 10-dose titration, read-out: rhSyk (nM) IC50): 3.1 nM |
| ≤ 100 nM | Cc1cc(Nc2cc(C(F)(F)F)ccn2)nc(-c2cnc(C(C)(O)C3CCC(C(=O)O)C(C)C3)s2)c1 (stereo not shown) [Example 15-15, 4-{1-hydroxy-1-[5-(4-methyl-6-{[4-(trifluoromethyl)pyridin-2-yl]amino}pyridin-2-yl)-1,3-thiazol-2-yl]ethyl}-2-methylcyclohexanecarboxylic acid] |  |
| ≤ 100 nM | Cc1cc(Nc2cccc(-c3cnc(C(C)(O)[C@H]4CC[C@H](C(=O)O)CC4)s3)n2)ncc1F (single isomer, unassigned) [Example 6, trans-4-[(1R or 1S)-1-(5-{6-[(5-Fluoro-4-methylpyridin-2-yl)amino]pyridin-2-yl}-1,3-thiazol-2-yl)-1-hydroxyethyl]cyclohexanecarboxylic acid] |  |
| ≤ 100 nM | Cc1ccnc(Nc2cc(C)cc(-c3cnc(C(C)(O)[C@H]4CC[C@H](C(=O)O)CC4)s3)n2)c1 (relative stereo) [Example 14-1, trans-4-[1-hydroxy-1-(5-{4-methyl-6-[(4-methylpyridin-2-yl)amino]pyridin-2-yl}-1,3-thiazol-2-yl)ethyl]cyclohexanecarboxylic acid] |  |
| ≤ 100 nM | Cc1cc(Nc2cc(C(F)(F)F)ccn2)nc(-c2cnc(C(C)(O)[C@H]3CC[C@H](C(=O)O)C(C)(C)C3)s2)c1 (stereo partly drawn) [Example 14-32, (1S,4S)-4-{1-hydroxy-1-[5-(4-methyl-6-{[4-(trifluoromethyl)pyridin-2-yl]amino}pyridin-2-yl)-1,3-thiazol-2-yl]ethyl}-2,2-dimethylcyclohexanecarboxylic acid] |  |
| ≤ 100 nM | COc1ccnc(Nc2cccc(-c3cnc(C(C)(O)[C@H]4CC[C@H](C(=O)O)C(C)(C)C4)s3)n2)c1 (stereo partly drawn) [Example 14-49, (1S,4S)-4-[1-hydroxy-1-(5-{6-[(4-methoxypyridin-2-yl)amino]pyridin-2-yl}-1,3-thiazol-2-yl)ethyl]-2,2-dimethylcyclohexanecarboxylic acid] |  |
